In paper PMC3255569 (Tuberculosis (Edinburgh, Scotland), 2009):
Where a name gives a salt, the structure may show the parent alone.

Experiments:
[1] = test system: M. tuberculosis H37Rv; details: cited from earlier work
[2] = test system: M. tuberculosis H37Rv; format: cell-based; details: Mycobacterium tuberculosis; for MIC: read-out: approximate MIC of control drug
[3] = test system: M. tuberculosis H37Rv; assay: M. tuberculosis H37Rv single-dose primary screen; format: cell-based, Mycobacterium tuberculosis; details: 10 μg/mL

## O=C1C(O)=C([C@H]2CC[C@H](c3ccc(Cl)cc3)CC2)C(=O)c2ccccc21 [Atovaquone]
[1]; Prestwick Library data
  activity against M. tuberculosis (in words): modest activity

## NCC[C@H](O)C(=O)N[C@@H]1C[C@H](N)[C@@H](O[C@H]2O[C@H](CN)[C@@H](O)[C@H](O)[C@H]2O)[C@H](O)[C@H]1O[C@H]1O[C@H](CO)[C@@H](O)[C@H](N)[C@H]1O [amikacin, Amikacin sulfate]
[2]
  MIC: ~0.13 µg/mL
[2]; run over the course of a five month period
  IC50: 0.09 ± 0.02 µg/mL

## Cc1cccc(Nc2nc(-c3ccccc3)cs2)n1 [deaza analog of 1a, 4-phenyl-[2-(6-methyl-2-pyridyl)amino]thiazole]
[3]
  % Inhibition, single-dose screen: 22%

## CC[C@@H](CO)NCCN[C@@H](CC)CO [ethambutol]
[2]
  MIC: ~0.5 µg/mL

## CCc1cc(C(N)=S)ccn1 [ethionamide, 2-ethylthioisonicotinamide]
[1]; in the TAACF screens
  TB IC90: > 100 µg/mL
